Where a name gives a salt, the structure may show the parent alone.
How the values were obtained:
[1] = biological target: T1, HCV polymerase (NS5B) type 1b (Hepatitis C virus genotype 1b, UniProt P26663); assay: Assay of enzyme (HCV polymerase) inhibitory activity, type 1b enzyme; format: biochemical, HCV BK strain (type 1b); conditions: HCV polymerase inhibitory activity (IC50), 1b, type 1b enzyme 0.5 μg/ml, 25° C., 60 min
T1 construct: a region encoding NS5B (J Virol 1991 March, 65(3), 1105-13, 544 amino acids after deletion of 47 amino acids on the C-terminal); 6xHis (C); made in house; host or cells: Escherichia coli
In short: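 Rxn: NS5B 1b (BK, ΔC47, His6) 0.5 μg/ml; substrate RNA 5 μg/ml; ATP/GTP/CTP 50 μM, UTP 2 μM + [5,6-3H]UTP; 20 mM Tris pH 7.5, 5 mM MgCl2, 50 mM NaCl, 1 mM EDTA/DTT. 25 °C, 60 min. Stop with TCA/pyrophosphate, filter, scintillation count; IC50 vs. untreated.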

[2] = biological target: T2, HCV polymerase (NS5B) type 1a (Hepatitis C virus genotype 1a, UniProt P26664); assay: Assay of enzyme (HCV polymerase) inhibitory activity, type 1a enzyme; format: biochemical, HCV type 1a (cloned from the blood of patients); conditions: HCV polymerase inhibitory activity (IC50), 1a, type 1a enzyme 1.5 μg/ml, 25° C., 60 min
T2 construct: made in house; host or cells: Escherichia coli (by the 'similar method' of the 1b enzyme)
In short: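 NS5B Δ47 C-term His6 (type 1a, 1.5 μg/ml); substrate RNA 5 μg/ml; ATP/GTP/CTP 50 μM, UTP 2 μM + [5,6-3H]UTP; Tris pH 7.5, MgCl2 5 mM; 25° C, 60 min. TCA/pyrophosphate stop, GF/B filter, scintillation. IC50 vs no-compound control.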

CCOC(=O)CCCCCC(=O)N1CCN(S(=O)(=O)c2ccc(C(F)(F)F)cc2)[C@@H](C(=O)NCc2ccc(C(C)C)cc2)C1 [Example 316, 7-[(R)-3-(4-isopropyl-benzylcarbamoyl)-4-(4-trifluoromethyl-benzenesulfonyl)-piperazin-1-yl]-7-oxo-heptanoic acid ethyl ester]
IC50 [1]: 100 to 1000 nM | IC50 [2]: 100 to 1000 nM

CC(C)c1ccc(CNC(=O)[C@H]2CN(C(=O)CCCCCC(=O)O)CCN2S(=O)(=O)c2ccc(C(F)(F)F)cc2)cc1 [Example 317, 7-[(R)-3-(4-isopropyl-benzylcarbamoyl)-4-(4-trifluoromethyl-benzenesulfonyl)-piperazin-1-yl]-7-oxo-heptanoic acid]
IC50 [1]: 100 to 1000 nM | IC50 [2]: 100 to 1000 nM

CC(C)c1ccc(CNC(=O)[C@H]2CN(C(=O)Nc3ccncc3)CCN2S(=O)(=O)c2ccc(OC(F)(F)F)cc2)cc1 [Example 318, (R)-4-(4-trifluoromethoxy-benzenesulfonyl)-piperazine-1,3-dicarboxylic acid 3-(4-isopropyl-benzylamide) 1-pyridin-4-ylamide]
IC50 [1]: < 100 nM | IC50 [2]: < 100 nM

CCCc1ccc(S(=O)(=O)N2CCN(c3nc(C)c(C(=O)OC(C)(C)C)s3)C[C@@H]2C(=O)NCc2ccc(C(C)C)cc2)cc1 [Example 319, 2-[(R)-3-(4-isopropyl-benzylcarbamoyl)-4-(4-propyl-benzenesulfonyl)-piperazin-1-yl]-4-methyl-thiazole-5-carboxylic acid tert-butyl ester]
IC50 [1]: 100 to 1000 nM | IC50 [2]: > 1000 nM

Cc1nc(N2CCN(S(=O)(=O)c3ccc(OC(F)(F)F)cc3)[C@@H](C(=O)NCc3ccc(C(C)C)cc3)C2)sc1C(=O)OC(C)(C)C [Example 320, 2-[(R)-3-(4-isopropyl-benzylcarbamoyl)-4-(4-trifluoromethoxy-benzenesulfonyl)-piperazin-1-yl]-4-methyl-thiazole-5-carboxylic acid tert-butyl ester]
IC50 [1]: > 1000 nM | IC50 [2]: > 1000 nM

CCc1ccc(CNC(=O)[C@H]2CN(C(C)=O)CCN2S(=O)(=O)c2ccc(C(C)C)cc2)c(C)c1 [Example 321, (R)-4-acetyl-1-(4-isopropyl-benzenesulfonyl)-piperazine-2-carboxylic acid 4-ethyl-2-methyl-benzylamide]
IC50 [1]: < 100 nM | IC50 [2]: < 100 nM

Cc1nc(N2CCN(S(=O)(=O)c3ccc(OC(F)(F)F)cc3)[C@@H](C(=O)NCc3ccc(C(C)C)cc3)C2)sc1C(=O)O [Example 322, 2-[(R)-3-(4-isopropyl-benzylcarbamoyl)-4-(4-trifluoromethoxy-benzenesulfonyl)-piperazin-1-yl]-4-methyl-thiazole-5-carboxylic acid]
IC50 [1]: < 100 nM | IC50 [2]: < 100 nM

CC(=O)N1CCN(S(=O)(=O)c2ccc(C(C)C)cc2)[C@@H](C(=O)NCc2ccc(C3CC3)cc2C)C1 [Example 323, (R)-4-acetyl-1-(4-isopropyl-benzenesulfonyl)-piperazine-2-carboxylic acid 4-cyclopropyl-2-methyl-benzylamide]
IC50 [1]: < 100 nM | IC50 [2]: < 100 nM

CC(=O)N1CCN(S(=O)(=O)c2ccc(OC(F)(F)F)c(CCC(=O)O)c2)[C@@H](C(=O)NCc2ccc(C(C)C)cc2)C1 [Example 324, 3-{5-[(R)-4-acetyl-2-(4-isopropyl-benzylcarbamoyl)-piperazine-1-sulfonyl]-2-trifluoromethoxy-phenyl}-propionic acid]
IC50 [1]: 100 to 1000 nM | IC50 [2]: < 100 nM

CCOC(=O)c1cnc(N2CCN(S(=O)(=O)c3ccc(C(F)(F)F)cc3)[C@@H](C(=O)NCc3ccc(C(C)C)cc3)C2)nc1O [Example 325, 4-hydroxy-2-[(R)-3-(4-isopropyl-benzylcarbamoyl)-4-(4-trifluoromethyl-benzenesulfonyl)-piperazin-1-yl]-pyrimidine-5-carboxylic acid ethyl ester]
IC50 [1]: 100 to 1000 nM | IC50 [2]: > 1000 nM

CC(C)c1ccc(CNC(=O)[C@H]2CN(c3ccc(C(=O)OC(C)(C)C)cn3)CCN2S(=O)(=O)c2ccc(C(F)(F)F)cc2)cc1 [Example 326, 6-[(R)-3-(4-isopropyl-benzylcarbamoyl)-4-(4-trifluoromethyl-benzenesulfonyl)-piperazin-1-yl]-nicotinic acid tert-butyl ester]
IC50 [1]: 100 to 1000 nM | IC50 [2]: 100 to 1000 nM

CC(C)c1ccc(CNC(=O)[C@H]2CN(c3ccc(C(=O)O)cn3)CCN2S(=O)(=O)c2ccc(C(F)(F)F)cc2)cc1 [Example 327, 6-[(R)-3-(4-isopropyl-benzylcarbamoyl)-4-(4-trifluoromethyl-benzenesulfonyl)-piperazin-1-yl]-nicotinic acid trifluoroacetate]
IC50 [1]: < 100 nM | IC50 [2]: < 100 nM

CC(C)c1ccc(CNC(=O)[C@H]2CN(c3ncc(C(=O)O)s3)CCN2S(=O)(=O)c2ccc(OC(F)(F)F)cc2)cc1 [Example 328, 2-[(R)-3-(4-isopropyl-benzylcarbamoyl)-4-(4-trifluoromethoxy-benzenesulfonyl)-piperazin-1-yl]-thiazole-5-carboxylic acid]
IC50 [1]: < 100 nM | IC50 [2]: < 100 nM

CCCc1ccc(S(=O)(=O)N2CCN(c3ncc(C(=O)O)s3)C[C@@H]2C(=O)NCc2ccc(C(C)C)cc2)cc1 [Example 329, 2-[(R)-3-(4-isopropyl-benzylcarbamoyl)-4-(4-propyl-benzenesulfonyl)-piperazin-1-yl]-thiazole-5-carboxylic acid]
IC50 [1]: < 100 nM | IC50 [2]: < 100 nM

CCCc1ccc(S(=O)(=O)N2CCN(c3nc(C)c(C(=O)OC(C)(C)C)s3)C[C@@H]2C(=O)NCc2ccc(C(C)C)cc2C)cc1 [Example 330, 2-[(R)-3-(4-isopropyl-2-methyl-benzylcarbamoyl)-4-(4-propyl-benzenesulfonyl)-piperazin-1-yl]-4-methyl-thiazole-5-carboxylic acid tert-butyl ester]
IC50 [1]: 100 to 1000 nM | IC50 [2]: > 1000 nM

CCCc1ccc(S(=O)(=O)N2CCN(c3nc(C)c(C(=O)O)s3)C[C@@H]2C(=O)NCc2ccc(C(C)C)cc2C)cc1 [Example 331, 2-[(R)-3-(4-isopropyl-2-methyl-benzylcarbamoyl)-4-(4-propyl-benzenesulfonyl)-piperazin-1-yl]-4-methyl-thiazole-5-carboxylic acid]
IC50 [1]: < 100 nM | IC50 [2]: < 100 nM

CC(C)c1ccc(CNC(=O)[C@H]2CN(C(=O)Nc3nncs3)CCN2S(=O)(=O)c2ccc(C(F)(F)F)cc2)cc1 [Example 332, (R)-4-(4-trifluoromethyl-benzenesulfonyl)-piperazine-1,3-dicarboxylic acid 3-(4-isopropyl-benzylamide) 1-[1,3,4]thiadiazol-2-ylamide]
IC50 [1]: < 100 nM | IC50 [2]: 100 to 1000 nM

CCCc1ccc(S(=O)(=O)N2CCN(c3nc(C)c(C(N)=O)s3)C[C@@H]2C(=O)NCc2ccc(C(C)C)cc2)cc1 [Example 333, (R)-4-(5-carbamoyl-4-methyl-thiazol-2-yl)-1-(4-propyl-benzenesulfonyl)-piperazine-2-carboxylic acid 4-isopropyl-benzylamide]
IC50 [1]: < 100 nM | IC50 [2]: < 100 nM

CCOC(=O)c1nnc(NC(=O)N2CCN(S(=O)(=O)c3ccc(C(F)(F)F)cc3)[C@@H](C(=O)NCc3ccc(C(C)C)cc3)C2)o1 [Example 334, 5-{[(R)-3-(4-isopropyl-benzylcarbamoyl)-4-(4-trifluoromethyl-benzenesulfonyl)-piperazine-1-carbonyl]-amino}-[1,3,4]oxadiazole-2-carboxylic acid ethyl ester]
IC50 [1]: > 1000 nM | IC50 [2]: > 1000 nM

Cc1cc(C(C)C)ccc1CNC(=O)[C@H]1CN(c2nc(C)c(C(=O)O)s2)CCN1S(=O)(=O)c1ccc(C(F)(F)F)cc1 [Example 335, 2-[(R)-3-(4-isopropyl-2-methyl-benzylcarbamoyl)-4-(4-trifluoromethyl-benzenesulfonyl)-piperazin-1-yl]-4-methyl-thiazole-5-carboxylic acid]
IC50 [1]: < 100 nM | IC50 [2]: < 100 nM

Cc1nc(N2CCN(S(=O)(=O)c3ccc(C(F)(F)F)cc3)[C@@H](C(=O)NCc3ccc(C(C)C)cc3)C2)ncc1C(=O)OCc1ccccc1 [Example 336, 2-[(R)-3-(4-isopropyl-benzylcarbamoyl)-4-(4-trifluoromethyl-benzenesulfonyl)-piperazin-1-yl]-4-methyl-pyrimidine-5-carboxylic acid benzyl ester]
IC50 [1]: > 1000 nM | IC50 [2]: > 1000 nM

COC(=O)c1cnc(N2CCN(S(=O)(=O)c3ccc(C(F)(F)F)cc3)[C@@H](C(=O)NCc3ccc(C(C)C)cc3)C2)nc1C [Example 337, 2-[(R)-3-(4-isopropyl-benzylcarbamoyl)-4-(4-trifluoromethyl-benzenesulfonyl)-piperazin-1-yl]-4-methyl-pyrimidine-5-carboxylic acid methyl ester]
IC50 [1]: 100 to 1000 nM | IC50 [2]: > 1000 nM

Cc1nc(N2CCN(S(=O)(=O)c3ccc(C(F)(F)F)cc3)[C@@H](C(=O)NCc3ccc(C(C)C)cc3)C2)ncc1C(=O)O [Example 338, 2-[(R)-3-(4-isopropyl-benzylcarbamoyl)-4-(4-trifluoromethyl-benzenesulfonyl)-piperazin-1-yl]-4-methyl-pyrimidine-5-carboxylic acid]
IC50 [1]: 100 to 1000 nM | IC50 [2]: > 1000 nM

Source: patent US8017612B2, “Piperazine compound and use thereof as a HCV polymerase inhibitor” (priority 2006, dated 2011)
